Data as given in patent US6852310B2, “Skin lightening agents, compositions and methods” (Unilever Home & Personal Care USA division of Conopco, Inc., priority 2002, dated 2005).

Legend:
[1] = tested on: B16 mouse melanoma cells; experiment: Melanin synthesis in B16 mouse melanoma cells (cell based assay); details: 6.25 micromolar, 72 hours, melanin in medium read at 530-nm, read-out: % of Control (Melanin Synthesis)
Description: This experiment was carried out using a cell based assay.
B16 mouse melanoma cells were utilized in the following experiment to evaluate the efficacy of skin lightening agents. B16 cells were plated in 96-well microtiter plates at a density of 5000 cells per well and cultured overnight in Dulbecco's Modified Eagle's Medium (phenol red free) containing 10% fetal bovine serum and 1% penicillin/streptomycin at 37° C. in the presence of 5% CO2. After 24 hours, the medium was replaced with fresh growth medium containing the treatments. All cultures were incubated for 72 hours at which time melanin was visible in the control treatment. The melanin-containing medium was transferred to a clean 96-well plate and quantified by reading the absorbency at 530-nm. Cell viability was assessed by measurement of lactate dehydrogenase levels to ensure the decrease in melanin was not a result of cellular toxicity.

[2] = tested on: mushroom tyrosinase; experiment: Mushroom Tyrosinase Assay; format: biochemical; details: for tyrosinase activity, % of ethanol control: slope of 475-nm absorbency vs. untreated ethanol control, L-DOPA substrate
Description: Mushroom tyrosinase inhibition is indicative of reduction in melanin synthesis, thereby showing skin lightening effect.
Into each well of a 96-well plate, 150 microliters of phosphate buffer (100 mM, pH 7.0), 10 microliters of L-DOPA (L-3, 4-Dihydroxyphenylalanine, 10 mM), and 20 microliters of skin lightening agent (dissolved in ethanol, which is the control) were added. Following an initial measurement of background absorbency at 475-nm, 20 microliters of mushroom tyrosinase (Sigma T-7755; 6050 units/ml) was added and incubated at room temperature.
Absorbency is read at 475-nm over the following time points: 0, 2, 4, and 6.5 minutes. The data is plotted as 475-nm absorbency vs. time (minutes) and the slope of the line is calculated (ΔAbs 475 nm/min). Values are expressed as the percentage of the respective untreated ethanol control reaction. [formula]

| SMILES | activity at 6.25 µM [1] [%] | tyrosinase activity, % of ethanol control ([2]; 0.1 uM) | tyrosinase activity, % of ethanol control ([2]; 1 uM) | tyrosinase activity, % of ethanol control ([2]; 10 uM) | tyrosinase activity, % of ethanol control ([2]; 100 uM) | skin lightening effectiveness (in words, from tyrosinase data) ([2]; conclusion drawn from Table 8) |
| --- | --- | --- | --- | --- | --- | --- |
| CCc1ccc(O)cc1O [4-Ethyl Resorcinol] | 15.6 | 72.7 % of Control | 46.3 % of Control | 30.8 % of Control | 20.7 % of Control | – |
| O=c1ccc2ccc(O)cc2o1 [7-Hydroxy Coumarin, 7-hydroxy coumarin] | – | 104 % of Control | 100 % of Control | 108 % of Control | 117 % of Control | effective in skin lightening |
| CNC(=O)/C=C\c1ccc(O)cc1O [Resorcinol Amide 1] | 13.1 | 75.1 % of Control | 51.0 % of Control | 53.0 % of Control | 53.4 % of Control | – |
| COCCNC(=O)/C=C\c1ccc(O)cc1O [Resorcinol Amide 2] | 13.7 | 84.2 % of Control | 59.5 % of Control | 58.0 % of Control | 57.9 % of Control | – |
